Data taken from patent US20040213826A1, “Medical devices and methods for inhibiting proliferation of smooth muscle cells” (priority 2003, published 2004).
Read-outs that look alike come from different tables or passages of the source.

Key:
[1] = system: vascular-endothelial-growth-factor-stimulated human umbilical endothelial cells; conditions: cited from earlier work
embryoid bodies = conditions: cited from earlier work
[2] = system: IL-2 expression in Jurkat cells; conditions: read-out: IC50, inhibition of IL-2 expression; cited from earlier work
[3] = cited from earlier work
[4] = system: rat aortic smooth muscle cells (RASM cells); assay: RASM cell proliferation assay (Promega CellTiter 96 AQueous One Solution); type: cell-based; conditions: for inhibition of RASM cell proliferation (in words) / IC50, inhibition of SMC proliferation: RASM cells, 48 h exposure; for IC50, inhibition of SMC proliferation: light absorption
Method: (§1) Low-passage rat aortic smooth muscle cells (RASM cells) from primary isolates and human aortic smooth muscle cells (HASM cells) were obtained and grown according to the suppliers' instructions. RASM cells were cultured in a medium comprising DMEM+10% FBS+100 U/ml penicillin and […], which was changed every 48 h. Micro-cultures of 5000 cells of each of the RASM and HASM were established in quadruplicate, placedin flat-bottom 96-well micro-titer plates, and exposed to various concentrations of the trichostatin-A, oxamflatin, and rapamycin. Trichostatin-A and oxamflatin were dissolved in dimethyl sulfoxide (DMSO) at various concentrations, and stored at −20° C. prior to use; rapamycin was dissolved in methanol (100 nM). After 48 h following initial exposure, the cultures were pulsed with […] of a cell-proliferation assay solution (Promega CellTiter 96 AQueous One Solution, Catalog G3580), and incubated for 1 h. The cultures' light absorbance was then measured on a BioRad Benchmark micro-plate reader, which was set to the range Ab 490 nm-Ab 655 nm. Light absorbed by the blank was accounted for in the tests. All experiments were repeated at least twice. Cell viability was determined using trypan blue staining, after incubating RASM cells with 100 ng/ml of rapamycin and trichostatin-A for 48 h.
Referring to FIG. 1, micro-cultures consisting of RASM cells were plated into a 96-well dish, and exposed as follows: a number of the micro-cultures were sham exposed, a number were exposed to rapamycin (5, 10, and 50 ng/ml, respectively), and a number were exposed to trichostatin-A ([…], respectively). The RASM cells were exposed for 48 h, prior to assessing cell proliferation.
Referring to FIG. 2, micro-cultures of RASM cells were plated into a 96-well dish, and exposed as follows: a number of the micro-cultures were sham exposed, and a number were exposed to oxamflatin (5, 10, 50, 100, 200 and 500 ng/ml, respectively)., The RASM cells were exposed for 48 h before assessing cell proliferation.

[5] = system: primary cultured SMCs from rat thoracic aorta; conditions: 1 μg/ml; cited from earlier work
RASM cells = assay: Cell viability by trypan blue staining; type: cell-based, rat; conditions: 100 ng/ml, 48 h
Method: as §1

[6] = system: porcine coronary arteries; conditions: 1 mM; cited from earlier work

Molecule	invasion of type I collagen gel and formation of capillary like structures ([1]; concentration not given)	angiogenesis in embryoid bodies (embryoid bodies; 400 nM)	IC50 [2] [nM]	solubility [3]	inhibition of RASM cell proliferation (in words) [4]	IC50, inhibition of SMC proliferation [4] [ng/mL]	inhibition of RASM cell proliferation compared with rapamycin ([4]; equal concentrations of 50 ng/ml, 48 h)	PDGF-induced competence of primary cultured SMCs [5]	invasion of type I collagen gel and formation of capillary like structures ([1]; 400 nM)	cell viability, trypan blue exclusion, versus control cells (RASM cells)	angiogenesis in embryoid bodies (embryoid bodies; 10 nM)	NO-dependent relaxation of porcine coronary arteries [6]
O=C(CCCCCCC(=O)Nc1ccccc1)NO [SAHA, suberoylanilide hydroxamic acid]	prevent	inhibit angiogenesis										
CC(/C=C/C(=O)NO)=C\[C@@H](C)C(=O)c1ccc(N(C)C)cc1 [trichostatin-A]			73	soluble in DMSO and ethanol	significant inhibition of SMC proliferation	~20	greater than that exhibited by rapamycin	inhibited	prevent	no significant difference	inhibit angiogenesis	attenuated
oxamflatin					inhibited RASM cell proliferation	~75						
